Experimental data: patent US20060282906A1, “Non-transgenic rodent model of Alzheimer's disease” (priority 2005, published 2006)
Where no end group is shown, it is not given here.

System: Male Wistar rats
Assay: Montoya staircase test
Assay type: in vivo, rat
Description: Male Wistar rats (250 to 300 grams; Charles River, Montreal, Quebec) were divided into 4 groups: intracerebroventricular injections of Aβ(25-35) (BACHEM, Torrance, Calif.); endothelin injections into the right striatum; both Aβ(25-35) and striatal endothelin injections; and sham procedures. The Aβ(25-35) fragment was used to reduce the possibility of rapid coagulation and to allow diffusion of the peptide into the brain.
All rats were anesthetized using 40 mg/kg of pentobarbital (Somnotol; MTC Pharmaceuticals, Cambridge, Ontario) intraperitoneally. Body temperature was maintained at 37° C. Aβ(25-35) (50 nmol in 10 μL of saline) was injected bilaterally into the lateral ventricles. Aβ(25-35) was prepared according to established methods (Sigurdsson, et al. (1997) supra). Aβ(25-35) (50 nmol in 10 μL of saline at a rate of 1 μL/minute) was injected bilaterally into the lateral ventricles via a stainless-steel cannula (23-gauge; anterior/posterior −0.8, medial/lateral ±1.4, and dorsal/ventral −4.0 below dura). Two endothelin injections (6 pmol in 3 μL of saline), 1 mm apart, were made into the right striatum (Sigurdsson, et al. (1997) supra). Sham procedures involved all the surgical steps without injections of Aβ(25-35) or endothelin. After wound suture, all rats received […] of buprenorphine intramuscularly and were allowed to recover from surgery for 7 days.
For training (n=10 for each group), rats were placed into the Montoya staircase apparatus (Montoya, et al. (1991) supra) at the same time every day for 8 days (days −8 through −1) and were allowed to perform the test for 20 minutes. Rats were food-deprived for 1 day (day −9) before testing, as well as on day −8. On days −7 though −1, rats were fed 10 grams of their normal chow so that they maintained their body weight at ˜85%. Three NOYES LAB ANIMAL PRECISION FOOD PELLETS™ (Research Diets, Inc., New Brunswick, N.J.) were placed in each of the 14 wells (7 on each side). Pellets eaten were recorded from each well. Re-testing trials, which were performed 7 days after the surgical procedures (day 0), were performed for 8 days in the same way as the training trials (days 8 through 15).
Digital photographs were taken using a light microscope (Leitz Diaplan). An investigator was blinded to the identification of the rat sections while analysis was being performed. […] Also, relative optical density measurements and numbers of stained cells or accumulations were measured in entire brain areas for quantitative analysis and statistically analyzed with ANOVA and Tukey post hoc test with a significance level of P<0.05. […] The staircase data are expressed as the mean±SEM. […] Data are expressed as mean±SEM. […]

GSNKGAIIGLM [Aβ, β-amyloid fragment (25-35), 50 nmol injected bilaterally into the lateral ventricles of rats]
Staircase test performance, ipsilateral paw (day 8 (first day of re-testing), mean±SEM): 73±8 % of pretreatment | total number of pellets eaten (day 8 compared with the last day of training, disappeared by day 9): significant deficit
